Reference: US8697095B1, “Inhibition of replication of oncogenic herpesviruses” (priority 2004, dated 2014)
pIC50: −log10 of the molar value. Several values for one entry are separate records, joined by “and”; a condition that tells them apart may be missing. Identical values can stand only once. Entries after “also recorded” stand apart in the source; their conditions may differ.

Key:
[1] = system: KSHV, MHV 68; conditions: FIG. 4 comparison; cited from earlier work
[2] = cited from earlier work
[3] = system: EBV; assay: Gardella gel antiviral assay, TPA-induced EBV replication in P3HR1 cells; assay type: cell-based, Epstein-Barr virus (EBV); conditions: P3HR1 cells with TPA
[4] = system: MHV 68; assay: Cytopathic effect and virus yield reduction, MHV 68 in NIH3T12 cells; assay type: cell-based, murine gamma herpesvirus 68 (MHV-68)
[5] = system: HVS; assay: Cytopathic effect and virus yield reduction, HVS in owl monkey kidney cells; assay type: cell-based, herpesvirus saimiri (HVS)
[6] = system: NIH3T12 cells; assay: Cytotoxicity (monolayer growth and morphology) in NIH3T12 cells; assay type: cell-based, Murine; conditions: 0.6-10 μg/ml, 2 days
Excerpt: (§1) Because the observed effects might be due to a non-specific toxic effect of THC, the inventors tested whether THC alters cell division or morphology in NIH3T12 and owl monkey kidney (OMK) cells. […].

[7] = system: Owl monkey kidney (OMK) cells; assay: Cytotoxicity in owl monkey kidney (OMK) cells; assay type: cell-based; conditions: analogous experiment
Excerpt: as §1

[8] = system: BCBL-1 cells; assay: Cell division inhibition (cell counts) in BCBL-1 cells; assay type: cell-based; conditions: BCBL1, 48 h, BCBL-1, two days, read-out: 50% cell division inhibitory concentration
Method: (§2) The effect of higher THC concentrations on cell division was also determined. Exponentially growing BCBL-1 or NIH12 cells were cultured for two days in the presence of various concentrations of THC or DMSO and cell counts were determined. The 50% cell division inhibitory concentration of THC for BCBL-1 cells was around 33 μM. NIH3T12 cells were less sensitive and the 50% inhibitory concentration was around 99 μM (not shown).

[9] = system: NIH3T12 cells; assay: Cell division inhibition (cell counts) in NIH3T12 cells; assay type: cell-based, Murine; conditions: Mus musculus, 48 h, NIH3T12, two days, read-out: 50% cell division inhibitory concentration
Method: as §2

[10] = system: HSV-1; assay: HSV-1 plaque formation and virus yield in NIH3T12 cells; assay type: cell-based
[11] = system: HSV-1; assay: HSV-1 replication in OMK cells; assay type: cell-based
Method: Control cultures were treated with […]. IC50 was determined by measuring virus titers in THC treated and control samples after one cycle of freeze-thawing of the cultures. Additional controls were uninfected cells grown in the presence of THC or DMSO. THC or DMSO were present throughout the experiment.
The inventors next examined whether or not the THC inhibitory effect can be observed against other herpesviruses and tested whether drug treatment suppresses the replication of the alpha herpesvirus, HSV-1. […] . […] HSV-1 replication in OMK was also unaffected by THC in an analogous experiment (not shown).

[12] = system: CMV immediate early promoter; assay: Dual luciferase promoter assay, control CMV promoter in NIH3T12 cells; assay type: cell-based; conditions: 5 μg/ml, 48 hours
Excerpt: (§3) FIG. 3 is a table showing the relative luciferase activity of extracts from control and THC treated cells. […] cells co-transfected with MHV 68 ORF 50 plus CMV control (top rows). BCBL-1 cells were co-transfected with the KSHV ORF 50 plus CMV control (bottom rows). Data represents averages from three independent co-transfection experiments.
(§4) A DNA fragment corresponding to the promoter region upstream of the mapped mRNAs was cloned into the basic firefly luciferase vector (Promega, Inc, Madison Wis.) to evaluate the effect of THC on the KSHV ORF 50 promoter. To assay the effect of THC on the MHV 68 ORF 50 gene, a DNA fragment containing the 0.4 kb full length ORF 50 promoter (nucleotides 66242-66652) cloned upstream of the firefly luciferase was utilized. About 5 μg KSHV ORF 50 firefly plasmid DNA was transfected into BCBL-1 cells. About 5 μg MHV 68 ORF 50 firefly plasmid DNA was transfected Into NIH312 cells. Control renilla luciferase expression vector (under the control of the CMV immediate early promoter) was included and co-transfected along with the ORF 50 reporter constructs. […] Luciferase activities were determined using a dual luminometer.
(§5) To evaluate the effect of THC on the MHV 68 and KSHV ORF 50 promoters, luciferase reporter assays were performed. […] Luciferase activities were determined using a dual luminometer. […]

[13] = system: KSHV ORF 50 promoter; assay: Dual luciferase promoter assay, KSHV ORF 50 promoter in BCBL-1 cells; assay type: cell-based; conditions: 5 μg/ml, 48 hours
Excerpt: as §3, §4, §5

[14] = system: CMV immediate early promoter; assay: Dual luciferase promoter assay, control CMV promoter in BCBL-1 cells; assay type: cell-based; conditions: 5 μg/ml
Excerpt: as §3, §4, §5

[15] = system: KSHV; assay: Gardella gel antiviral assay, KSHV DNA replication in BCBL-1 cells
[16] = system: KSHV
Method: BCBL-1 cells were incubated with or without THC and in the presence of these compounds.

## Nc1ccn(C[C@@H](CO)OCP(=O)(O)O)c(=O)n1 [Cidofovir]
[1]
  Relative potency in in vitro antiviral experiments: most potent
[2]
  Side effects in humans: toxic to the kidney

## CCCCCc1cc(O)c2c(c1)OC(C)(C)[C@@H]1CCC(C)=C[C@@H]21 [THC, Δ-9 Tetrahydrocannabinol]
[3]; autoradiogram
  Effect on EBV linear DNA synthesis: inhibited EBV linear DNA synthesis
[3]; human gammaherpesvirus 4, P3HR-1, read-out: 50% inhibitory concentration (IC50), EBV linear DNA synthesis
  IC50: ~0.9 µg/mL and ~3.1 µM
[4]; 0.6 μg/ml, 48 hours, NIH3T12
  Cytopathic effect of MHV 68, appearance of infected cells: intermediate between uninfected cells and the full cytopathic effect
[4]; 1.25 μg/ml or higher, 48 hours, NIH3T12
  Cytopathic effect of MHV 68, appearance of infected cells: indistinguishable from uninfected control cells
[4]; 10 μg/ml, 48 hours, NIH3T12
  Inhibition of virus yield: over 300 fold
[4]; FIG. 4 comparison
  Potency and selectivity against MHV 68 compared with acyclovir, ganciclovir and foscarnet: even more potent and selective
[4]; Gammaherpesvirinae sp., in Mus musculus, 48 h, read-out: 50% inhibitory concentration (IC50), MHV 68 virus yield
  IC50: ~0.6 µg/mL and ~1.9 µM
[4]; NIH3T12 cells
  Effect on MHV 68 virus yield / replication: inhibits MHV 68 virus yield; also recorded: highly significantly inhibited; also recorded: strongly inhibited
[5]
  HVS virus yield reduction / replication: strongly inhibited
[6]
  Cell growth and morphology: no altered morphology
[7]
  Toxicity: no toxicity
[8]
  pIC50: ~4.48
[9]
  pIC50: ~4.00
[10]; 0.6-10 μg/ml, 3 days, NIH3T12
  HSV-1 plaque development: indistinguishable from those in control cultures
[10]; NIH3T12, multiplicity of 2, 24 hours
  Effect on HSV-1 virus yield: no significant inhibitory effect
[11]
  HSV-1 replication: unaffected
[12]
  Reduction of control CMV promoter activity: 35%
[13]
  Inhibition of KSHV ORF 50-driven luciferase activity: ~4 fold
[14]
  Effect on co-transfected CMV promoter: slightly stimulated
[15]; FIG. 4 comparison
  Potency and selectivity against KSHV compared with known antiviral drugs: potent and selective antiviral agent
[15]; Human gammaherpesvirus 8, BCBL1, 72 h, read-out: 50% inhibitory concentration (IC50), KSHV linear DNA
  IC50: 1 µg/mL and ~3.3 µM

## SR144528
[16]; BCBL-1, without THC
  Effect on spontaneous KSHV reactivation: no effect
[16]; both antagonists, 1.25 μg/ml THC
  Reversal of inhibition of linear DNA synthesis by THC: reversed
[16]; single receptor antagonist
  Reversal of THC inhibition of KSHV DNA synthesis: not reversed
